The target in assay [1] is T1, 5-hydroxytryptamine receptor 1A (Mus musculus, UniProt Q64264).
T1 sequence (Q64264 whole entry): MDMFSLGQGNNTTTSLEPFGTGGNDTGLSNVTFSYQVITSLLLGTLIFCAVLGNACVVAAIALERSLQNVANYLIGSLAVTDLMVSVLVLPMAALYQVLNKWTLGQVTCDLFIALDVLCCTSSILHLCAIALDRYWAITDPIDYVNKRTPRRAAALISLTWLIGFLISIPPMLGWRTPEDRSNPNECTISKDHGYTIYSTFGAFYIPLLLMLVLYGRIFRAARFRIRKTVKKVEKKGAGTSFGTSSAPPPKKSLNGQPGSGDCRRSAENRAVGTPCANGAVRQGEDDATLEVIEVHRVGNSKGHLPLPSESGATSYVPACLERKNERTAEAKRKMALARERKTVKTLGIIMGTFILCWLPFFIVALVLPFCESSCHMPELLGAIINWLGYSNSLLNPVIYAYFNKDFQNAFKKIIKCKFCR
Nature of the assay: Binding affinity towards 5-HT1A receptor.

A further assay has as its target D(2) dopamine receptor (Mus musculus, UniProt P61168). The assay can be described thus: Binding affinity towards Dopamine receptor D2.
Assay [2] concerns the target T2, Alpha-1 adrenergic receptor (Mus musculus, UniProt P97714+P97717+P97718).
T2 sequence (P97714 whole entry): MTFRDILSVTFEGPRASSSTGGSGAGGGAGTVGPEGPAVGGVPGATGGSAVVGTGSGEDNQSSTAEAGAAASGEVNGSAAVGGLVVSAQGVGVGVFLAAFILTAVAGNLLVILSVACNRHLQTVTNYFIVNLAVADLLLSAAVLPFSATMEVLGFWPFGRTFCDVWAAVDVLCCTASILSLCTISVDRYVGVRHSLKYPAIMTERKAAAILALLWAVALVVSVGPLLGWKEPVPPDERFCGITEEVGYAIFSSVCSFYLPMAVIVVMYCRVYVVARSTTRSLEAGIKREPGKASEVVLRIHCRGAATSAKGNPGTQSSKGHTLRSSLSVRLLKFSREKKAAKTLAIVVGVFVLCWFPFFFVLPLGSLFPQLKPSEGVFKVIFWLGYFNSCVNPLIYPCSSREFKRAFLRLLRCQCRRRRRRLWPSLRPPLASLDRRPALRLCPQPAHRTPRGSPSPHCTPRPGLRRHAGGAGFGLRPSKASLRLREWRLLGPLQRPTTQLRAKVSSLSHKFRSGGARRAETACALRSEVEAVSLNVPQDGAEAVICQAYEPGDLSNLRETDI
T2 sequence (P97717 whole entry): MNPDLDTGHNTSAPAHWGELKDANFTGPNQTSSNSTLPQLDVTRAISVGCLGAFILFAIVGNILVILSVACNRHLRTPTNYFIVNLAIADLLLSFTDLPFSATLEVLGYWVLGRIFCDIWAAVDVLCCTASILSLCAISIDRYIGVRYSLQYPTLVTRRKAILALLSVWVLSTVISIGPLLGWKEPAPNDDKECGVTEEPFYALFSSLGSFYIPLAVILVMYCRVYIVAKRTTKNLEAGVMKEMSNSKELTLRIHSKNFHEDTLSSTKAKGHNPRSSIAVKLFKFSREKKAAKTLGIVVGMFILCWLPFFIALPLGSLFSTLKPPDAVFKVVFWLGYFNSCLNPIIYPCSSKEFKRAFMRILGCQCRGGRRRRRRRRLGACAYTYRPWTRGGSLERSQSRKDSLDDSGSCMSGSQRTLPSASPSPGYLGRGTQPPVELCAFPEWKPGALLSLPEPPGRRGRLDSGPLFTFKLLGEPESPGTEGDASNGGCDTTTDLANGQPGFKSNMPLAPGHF
T2 sequence (P97718 whole entry): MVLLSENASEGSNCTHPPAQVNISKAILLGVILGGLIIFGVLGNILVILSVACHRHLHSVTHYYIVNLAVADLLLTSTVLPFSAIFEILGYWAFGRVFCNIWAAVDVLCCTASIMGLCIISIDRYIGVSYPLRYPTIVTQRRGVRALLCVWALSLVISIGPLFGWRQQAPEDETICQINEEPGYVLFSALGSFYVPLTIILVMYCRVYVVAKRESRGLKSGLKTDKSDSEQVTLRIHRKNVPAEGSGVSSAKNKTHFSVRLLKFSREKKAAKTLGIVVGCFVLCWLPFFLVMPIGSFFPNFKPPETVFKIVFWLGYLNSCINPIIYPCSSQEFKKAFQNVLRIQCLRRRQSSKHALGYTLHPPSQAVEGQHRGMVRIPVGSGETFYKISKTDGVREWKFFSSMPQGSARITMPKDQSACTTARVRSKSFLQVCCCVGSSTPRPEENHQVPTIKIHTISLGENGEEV
The assay can be described thus: Binding affinity towards Alpha-1 adrenergic receptor. The format is protein assay.

D(2) dopamine receptor, sequence (P61168 whole entry): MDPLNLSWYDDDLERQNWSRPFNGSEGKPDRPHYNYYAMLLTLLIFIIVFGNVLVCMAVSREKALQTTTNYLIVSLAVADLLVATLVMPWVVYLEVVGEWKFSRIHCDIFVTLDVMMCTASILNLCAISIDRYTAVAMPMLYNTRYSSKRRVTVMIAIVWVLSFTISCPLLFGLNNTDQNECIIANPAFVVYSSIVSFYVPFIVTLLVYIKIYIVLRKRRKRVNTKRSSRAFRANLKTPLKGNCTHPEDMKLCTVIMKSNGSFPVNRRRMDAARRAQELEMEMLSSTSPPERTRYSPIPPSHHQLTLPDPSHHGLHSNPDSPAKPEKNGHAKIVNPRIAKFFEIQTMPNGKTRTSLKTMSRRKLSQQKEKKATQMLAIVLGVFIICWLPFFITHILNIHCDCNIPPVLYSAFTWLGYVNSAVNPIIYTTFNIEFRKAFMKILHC

Broadly, the Ki is the equilibrium dissociation constant of an inhibitor or competing ligand from its target. Low readings indicate tighter binding, high ones weaker binding. For the compound `CCS(=O)(=O)Nc1cccc(N2CCN(CCCCN3C(=O)C4CCCN4C3=O)CC2)c1` (stereo not drawn), the results for the inhibition constant (Ki) (in assay [1]; at D(2) dopamine receptor; in assay [2]) were 27 nM, 22 nM and greater than 1000 nM, respectively.

These data come from ChEMBL document CHEMBL1131751, “Design and synthesis of 2-[4-[4-(m-(ethylsulfonamido)-phenyl) piperazin-1-yl]butyl]-1,3-dioxoperhydropyrrolo[1,2-c]imidazole (EF-7412) using neural networks. A selective derivative with mixed 5-HT1A/D2 antagonist properties” (Bioorg Med Chem Lett, 1999).
